Test results as given in patent publication US11130769B2 (Prelude Therapeutics Incorporated, priority 2018, dated 2021).

How the values were obtained:
MCL-1 = MCL-1 (Homo sapiens (Human), UniProt Q07820); experiment: Cell free Mcl-1:Bim affinity assay (fluorescence polarization competition); type: binding; settings: 15 nM MCL-1, 5 nM FITC-Bim, 1 hour at room temperature; class symbols; read-out: BIM_Ki
In short: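 Compounds competed with FITC-labelled Bim peptide (5 nM) for MCL-1 (15 nM) in HEPES/NaCl buffer with 1% DMSO, 1 h at room temperature. Fluorescence polarization (535 nm emission) gave % inhibition versus DMSO and positive controls; IC50 from 10-point curves, converted to Ki by the Nikolovska-Coleska equation.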

H929 cells = experiment: Cell viability assay (H929 10 FBS); type: cell-based; settings: Homo sapiens, NCI-H929, 24 hours, read-out: H929_10FBS IC50
In short: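 H929 cells, 4000/well, in RPMI 1640 with 10% FBS, sodium pyruvate, HEPES and glucose were exposed to compound 24 h at 37 °C. Viability read as luminescence after 30-60 min at RT with CellTiter-Glo or ATPlite 1 Step.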

MCL-1, sequence (Q07820 whole entry): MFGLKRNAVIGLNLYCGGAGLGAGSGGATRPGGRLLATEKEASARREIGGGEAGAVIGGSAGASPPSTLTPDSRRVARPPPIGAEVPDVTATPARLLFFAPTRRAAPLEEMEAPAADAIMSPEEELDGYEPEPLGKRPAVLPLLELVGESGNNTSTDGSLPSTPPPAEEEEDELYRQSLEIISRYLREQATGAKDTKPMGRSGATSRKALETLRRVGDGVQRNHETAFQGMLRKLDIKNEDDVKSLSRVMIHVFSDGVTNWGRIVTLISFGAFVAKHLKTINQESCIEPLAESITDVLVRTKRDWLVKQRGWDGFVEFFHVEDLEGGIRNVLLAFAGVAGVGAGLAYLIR

Ki (MCL-1) | IC50 (H929 cells) | Structure (SMILES)
< 1 nM | < 500 nM | COCCN1CCN(C(=O)O[C@H]2/C=C/COC(C)(C)C(=O)NS(=O)(=O)c3ccc4c(c3)N(C[C@@H]3CC[C@H]32)C[C@@]2(CCCc3cc(Cl)ccc32)CO4)CC1 [Example 46, [(3R,6R,7S,8E,22S)-6′-Chloro-12,12-dimethyl-13,15,15-trioxo-spiro[11,20-dioxa-15-thia-1,14-diazatetracyclo[14.7.2.03,6.019,24]pentacosa-8,16,18,24-tetraene-22,1′-tetralin]-7-yl] 4-(2-methoxyethyl)piperazine-1-carboxylate]
< 1 nM | < 500 nM | [2H]C([2H])([2H])N(C(=O)O[C@H]1/C=C/COC(C)(C)C(=O)NS(=O)(=O)c2ccc3c(c2)N(C[C@@H]2CC[C@H]21)C[C@@]1(CCCc2cc(Cl)ccc21)CO3)C([2H])([2H])[2H] [Example 47, [(3R,6R,7S,8E,22S)-6′-Chloro-12,12-dimethyl-13,15,15-trioxo-spiro[11,20-dioxa-thia-1,14-diazatetracyclo[14.7.2.03,6.019,24]pentacosa-8,16,18,24-tetraene-22,1′-tetralin]-7-yl] N,N-bis(trideuteriomethyl)carbamate]
< 1 nM | < 500 nM | CN(C)C(=O)O[C@H]1/C=C/CN(C)C2(CCC2)C(=O)NS(=O)(=O)c2ccc3c(c2)N(C[C@@H]2CC[C@H]21)C[C@@]1(CCCc2cc(Cl)ccc21)CO3 [Example 48, [(3R,6R,7R,8E,22S)-6′-Chloro-11-methyl-12,12-(1,3-propylene)-13,15,15-trioxo-spiro[20-oxa-15-thia-1,11,14-triazatetracyclo[14.7.2.03,6.019,24]pentacosa-8,16,18,24-tetraene-22,1′-tetralin]-7-yl] N,N-dimethylcarbamate]
< 1 nM | < 500 nM | CC1(C)OC/C=C/[C@H](OC(=O)N2CC(F)(F)C2)[C@@H]2CC[C@H]2CN2C[C@@]3(CCCc4cc(Cl)ccc43)COc3ccc(cc32)S(=O)(=O)NC1=O [Example 49, [(3R,6R,7S,8E,22S)-6′-Chloro-12,12-dimethyl-13,15,15-trioxo-spiro[11,20-dioxa-15-thia-1,14-diazatetracyclo[14.7.2.03,6.019,24]pentacosa-8,16,18,24-tetraene-22,1′-tetralin]-7-yl] 3,3-difluoroazetidine-1-carboxylate]
< 1 nM | < 500 nM | CNC(=O)O[C@H]1/C=C/COC(C)(C)C(=O)NS(=O)(=O)c2ccc3c(c2)N(C[C@@H]2CC[C@H]21)C[C@@]1(CCCc2cc(Cl)ccc21)CO3 [Example 50, [(3R,6R,7S,8E,22S)-6′-Chloro-12,12-dimethyl-13,15,15-trioxo-spiro[11,20-dioxa-15-thia-1,14-diazatetracyclo[14.7.2.03,6.019,24]pentacosa-8,16,18,24-tetraene-22,1′-tetralin]-7-yl] N-methylcarbamate]
< 1 nM | < 500 nM | COC1CCN(C(=O)O[C@H]2/C=C/COC(C)(C)C(=O)NS(=O)(=O)c3ccc4c(c3)N(C[C@@H]3CC[C@H]32)C[C@@]2(CCCc3cc(Cl)ccc32)CO4)CC1 [Example 51, [(3R,6R,7S,8E,22S)-6′-Chloro-12,12-dimethyl-13,15,15-trioxo-spiro[11,20-dioxa-15-thia-1,14-diazatetracyclo[14.7.2.03,6.019,24]pentacosa-8,16,18,24-tetraene-22,1′-tetralin]-7-yl] 4-methoxypiperidine-1-carboxylate]
< 1 nM | < 500 nM | CN(C)C1CN(C(=O)O[C@H]2/C=C/COC(C)(C)C(=O)NS(=O)(=O)c3ccc4c(c3)N(C[C@@H]3CC[C@H]32)C[C@@]2(CCCc3cc(Cl)ccc32)CO4)C1 [Example 52, [(3R,6R,7S,8E,22S)-6′-Chloro-12,12-dimethyl-13,15,15-trioxo-spiro[11,20-dioxa-15-thia-1,14-diazatetracyclo[14.7.2.03,6.019,24]pentacosa-8,16,18,24-tetraene-22,1′-tetralin]-7-yl] 3-(dimethylamino)azetidine-1-carboxylate]
< 1 nM | < 500 nM | CN(C)[C@@H]1CCN(C(=O)O[C@H]2/C=C/COC(C)(C)C(=O)NS(=O)(=O)c3ccc4c(c3)N(C[C@@H]3CC[C@H]32)C[C@@]2(CCCc3cc(Cl)ccc32)CO4)C1 [Example 53, [(3R,6R,7S,8E,22S)-6′-Chloro-12,12-dimethyl-13,15,15-trioxo-spiro[11,20-dioxa-15-thia-1,14-diazatetracyclo[14.7.2.03,6.019,24]pentacosa-8,16,18,24-tetraene-22,1′-tetralin]-7-yl] (3R)-3-(dimethylamino)pyrrolidine-1-carboxylate]
< 1 nM | < 500 nM | CN1CCCN(C(=O)O[C@H]2/C=C/COC(C)(C)C(=O)NS(=O)(=O)c3ccc4c(c3)N(C[C@@H]3CC[C@H]32)C[C@@]2(CCCc3cc(Cl)ccc32)CO4)CC1 [Example 54, [(3R,6R,7S,8E,22S)-6′-Chloro-12,12-dimethyl-13,15,15-trioxo-spiro[11,20-dioxa-15-thia-1,14-diazatetracyclo[14.7.2.03,6.019,24]pentacosa-8,16,18,24-tetraene-22,1′-tetralin]-7-yl] 4-methyl-1,4-diazepane-1-carboxylate]
< 1 nM | < 500 nM | CN(C)CCN(C)C(=O)O[C@H]1/C=C/COC(C)(C)C(=O)NS(=O)(=O)c2ccc3c(c2)N(C[C@@H]2CC[C@H]21)C[C@@]1(CCCc2cc(Cl)ccc21)CO3 [Example 55, [(3R,6R,7S,8E,22S)-6′-Chloro-12,12-dimethyl-13,15,15-trioxo-spiro[11,20-dioxa-15-thia-1,14-diazatetracyclo[14.7.2.0˜3,6.0˜19,24]pentacosa-8,16,18,24-tetraene-22,1′-tetralin]-7-yl] N-[2-(dimethylamino)ethyl]-N-methyl-carbamate]
< 1 nM | < 500 nM | COC1CN(C(=O)O[C@H]2/C=C/COC(C)(C)C(=O)NS(=O)(=O)c3ccc4c(c3)N(C[C@@H]3CC[C@H]32)C[C@@]2(CCCc3cc(Cl)ccc32)CO4)C1 [Example 56, [(3R,6R,7S,8E,22S)-6′-Chloro-12,12-dimethyl-13,15,15-trioxo-spiro[11,20-dioxa-15-thia-1,14-diazatetracyclo[14.7.2.03,6.019,24]pentacosa-8,16,18,24-tetraene-22,1′-tetralin]-7-yl] 3-methoxyazetidine-1-carboxylate]
< 1 nM | < 500 nM | CCOC1CN(C(=O)O[C@H]2/C=C/COC(C)(C)C(=O)NS(=O)(=O)c3ccc4c(c3)N(C[C@@H]3CC[C@H]32)C[C@@]2(CCCc3cc(Cl)ccc32)CO4)C1 [Example 57, [(3R,6R,7S,8E,22S)-6′-Chloro-12,12-dimethyl-13,15,15-trioxo-spiro[11,20-dioxa-15-thia-1,14-diazatetracyclo[14.7.2.03,6.019,24]pentacosa-8,16,18,24-tetraene-22,1′-tetralin]-7-yl] 3-ethoxyazetidine-1-carboxylate]
< 1 nM | < 500 nM | CO[C@@H]1CCN(C(=O)O[C@H]2/C=C/COC(C)(C)C(=O)NS(=O)(=O)c3ccc4c(c3)N(C[C@@H]3CC[C@H]32)C[C@@]2(CCCc3cc(Cl)ccc32)CO4)C1 [Example 58, [(3R,6R,7S,8E,22S)-6′-Chloro-12,12-dimethyl-13,15,15-trioxo-spiro[11,20-dioxa-15-thia-1,14-diazatetracyclo[14.7.2.03,6.019,24]pentacosa-8,16,18,24-tetraene-22,1′-tetralin]-7-yl] (3R)-3-methoxypyrrolidine-1-carboxylate]
